Results from BigSolDB 2.1.

CC1=CC(=O)c2ccccc2C1=O
solubility (mole fraction)
Conditions | in 1,2-dichloroethane | in acetone | in acetonitrile | in cyclohexane | in dichloromethane | in isopropanol | in methanol | in methyl acetate | in n-butanol | in n-propanol
278.15 K | 0.0879 | 0.0305 | 0.016 | – | 0.111 | 0.00291 | 0.00285 | 0.0427 | 0.00314 | 0.00343
283.15 K | 0.108 | 0.0381 | 0.0197 | 0.00329 | 0.128 | 0.00373 | 0.00335 | 0.0481 | 0.00417 | 0.00426
288.15 K | 0.12 | 0.0439 | 0.027 | 0.00417 | 0.148 | 0.0048 | 0.00396 | 0.0595 | 0.0057 | 0.00564
293.15 K | 0.142 | 0.0534 | 0.0326 | 0.00514 | 0.169 | 0.00588 | 0.00484 | 0.0718 | 0.00742 | 0.00685
298.15 K | 0.159 | 0.0669 | 0.0403 | 0.00673 | 0.193 | 0.00764 | 0.00606 | 0.0854 | 0.00994 | 0.00838
303.15 K | 0.187 | 0.0809 | 0.0491 | 0.00848 | 0.219 | 0.0096 | 0.00709 | 0.105 | 0.0127 | 0.01
308.15 K | 0.21 | 0.0983 | 0.0609 | 0.0103 | 0.247 | 0.0122 | 0.00827 | 0.12 | 0.0169 | 0.0122
313.15 K | 0.243 | 0.118 | 0.0737 | 0.0131 | 0.277 | 0.0153 | 0.00975 | 0.148 | 0.0223 | 0.0143
